Assay results published in US12240862B2, “Inhibitors of peptidylarginine deiminases” (Gilead Sciences, Inc., priority 2020, dated 2025).

biological target: T1, human PAD4 (Homo sapiens, UniProt Q9UM07); assay: In vitro PAD4 BAEE biochemical assay; conditions: human PAD4, BAEE substrate; 5 nM PAD4, 2 mM calcium chloride, 3 mM BAEE; geometric mean of multiple experiments
T1 construct: human PAD4 (NM_012387), A2P663, was PCR amplified; His-SUMO (N, cleaved yes); made in house; host or cells: E. coli BL21(DE3)
T1 sequence (Q9UM07 2-663): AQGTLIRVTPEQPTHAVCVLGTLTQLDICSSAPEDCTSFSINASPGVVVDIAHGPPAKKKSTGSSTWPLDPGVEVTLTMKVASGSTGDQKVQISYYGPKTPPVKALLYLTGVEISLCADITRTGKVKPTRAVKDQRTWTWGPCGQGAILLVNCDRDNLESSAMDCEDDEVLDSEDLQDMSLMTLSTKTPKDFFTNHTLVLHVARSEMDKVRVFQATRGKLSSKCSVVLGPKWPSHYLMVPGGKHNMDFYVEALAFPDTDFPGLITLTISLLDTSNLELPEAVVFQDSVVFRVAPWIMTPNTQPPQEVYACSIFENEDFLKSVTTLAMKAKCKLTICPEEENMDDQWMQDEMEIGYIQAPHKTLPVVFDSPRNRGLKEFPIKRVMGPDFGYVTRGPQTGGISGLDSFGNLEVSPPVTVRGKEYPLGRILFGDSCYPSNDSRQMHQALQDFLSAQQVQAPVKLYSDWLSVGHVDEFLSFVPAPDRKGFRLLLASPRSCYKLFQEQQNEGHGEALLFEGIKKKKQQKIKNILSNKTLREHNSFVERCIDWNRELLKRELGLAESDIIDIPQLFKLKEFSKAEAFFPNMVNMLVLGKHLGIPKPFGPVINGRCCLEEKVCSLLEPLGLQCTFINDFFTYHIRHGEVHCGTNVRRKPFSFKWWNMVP
Outline: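 Tag-free recombinant hPAD4 (5 nM), 2 mM CaCl2, 3 mM BAEE, 50 mM MOPS pH 7.6, 2 mM DTT; 30 min compound preincubation, 2 h reaction, all 25 °C. EDTA quench; ammonia read via o-phthalaldehyde amine coupling, 1 h.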

Row | Compound | IC50 [nM]
1 | COc1cc(C(=O)N2CC[C@@H](OC)[C@@H](N)C2)cc2nc(-c3cc4ccc([C@@H](C)NC(=O)c5ccccc5)nc4n3CC3CC3)c(C)n12 [Example 114, ~{N}-[(1~{R})-1-[2-[7-[(3~{S},4~{R})-3-amino-4-methoxypiperidine-1-carbonyl]-5-methoxy-3-methylimidazo [1,2-a]pyridin-2-yl]-1-(cyclopropylmethyl)pyrrolo [2,3-b]pyridin-6-yl]ethyl]benzamide] | 220
2 | COc1cc(C(=O)N2[C@H]3CC[C@@H]2[C@H](N)C3)cc2nc(-c3cc4ccc([C@@H](C)NC(=O)c5ncco5)nc4n3CC3CC3)c(C)n12 [Example 73, ~{N}-[(1~{R})-1-[2-[7-[(1~{R},2~{R},4~{S})-2-amino-7-azabicyclo[2.2.1]heptane-7-carbonyl]-5-methoxy-3-methylimidazo [1,2-a]pyridin-2-yl]-1-(cyclopropylmethyl)pyrrolo [2,3-b]pyridin-6-yl]ethyl]-1,3-oxazole-2-carboxamide] | 38.7
3 | CSc1cc(C(=O)N2CCC[C@@H](N)C2)cc2nc(-c3cc4ccc(N(C(F)F)S(C)(=O)=O)nc4n3CC3CC3)c(C)n12 [Example 387, ~{N}-[2-[7-[(3~{R})-3-aminopiperidine-1-carbonyl]-3-methyl-5-methylsulfanylimidazo[1,2-a]pyridin-2-yl]-1-(cyclopropylmethyl)pyrrolo [2,3-b]pyridin-6-yl]-~{N}-(difluoromethyl) methanesulfonamide] | 779
4 | COc1cc(C(=O)N2CC[C@@H](NC(C)=O)[C@@H](N)C2)cc2nc(-c3cc4ccc(N(C(F)F)S(C)(=O)=O)nc4n3CC3CC3)c(C)n12 [Example 360, ~{N}-[(3~{S},4~{R})-3-amino-1-[2-[1-(cyclopropylmethyl)-6-[difluoromethyl (methylsulfonyl)amino]pyrrolo[2,3-b]pyridin-2-yl]-5-methoxy-3-methylimidazo[1,2-a]pyridine-7-carbonyl]piperidin-4-yl]acetamide] | 725
5 | COc1cc(C(=O)N2[C@H]3CC[C@@H]2[C@H](N)C3)cc2nc(-c3cc4ccc([C@@H](C)NC(=O)N5CC[C@H](CCO)C5)nc4n3CC3CC3)c(C)n12 [Example 215, (3~{R})-~{N}-[(1~{R})-1-[2-[7-[(1~{R},2~{R}, 4~{S})-2-amino-7-azabicyclo[2.2.1]heptane-7-carbonyl]-5-methoxy-3-methylimidazo [1,2-a]pyridin-2-yl]-1-(cyclopropylmethyl)pyrrolo [2,3-b]pyridin-6-yl]ethyl]-3-(2-hydroxyethyl)pyrrolidine-1-carboxamide] | 44.2
6 | COc1cc(C(=O)N2[C@H]3CC[C@@H]2[C@H](N)C3)cc2nc(-c3cc4ccc(-c5cccnc5C)nc4n3CC3CC3)c(C)n12 [Example 575, ((1R,2R,4S)-2-amino-7-azabicyclo[2.2.1]heptan-7-yl)(2-(1-(cyclopropylmethyl)-6-(2-methylpyridin-3-yl)-1H-pyrrolo[2,3-b]pyridin-2-yl)-5-methoxy-3-methylimidazo[1,2-a]pyridin-7-yl)methanone] | 130
7 | (2~{S})-2-[2-[7-[(3~{R})-3- aminopiperidine-1- carbonyl]-5-methoxy-3- methylimidazo[1,2- a]pyridin-2-yl]-1- (cyclopropylmethyl)pyrrolo [2,3-b]pyridin-6-yl] oxy-~{N}- methylpropanamide [Example 630] | 9400
8 | CS(=O)(=O)N(c1ccc2cc(-c3nc4cc(C(=O)N5C[C@H]6CC[C@@H]5[C@@H]6N)ccn4c3C3CC3)n(CC3CC3)c2n1)C(F)F [Example 396, N-[2-[7-[(1R,4R,7R)-7-amino-2-azabicyclo [2.2.1]heptane-2-carbonyl]-3-cyclopropyl-imidazo[1,2-a]pyridin-2-yl]-1-(cyclopropylmethyl)pyrrolo [2,3-b]pyridin-6-yl]-N-(difluoromethyl) methanesulfonamide] | 194
9 | CC(C)c1c(-c2cc3ccc(N(C(F)F)S(C)(=O)=O)nc3n2CC2CC2)nc2cc(C(=O)N3[C@@H]4CC[C@@H](N)[C@H]3CC4)ccn12 [Example 434] | 3410
10 | COc1cc(C(=O)N2C[C@@H]3CNCC[C@@H]32)cc2nc(-c3cc4ccc(N(C(F)F)S(C)(=O)=O)nc4n3CC3CC3)c(C)n12 [Example 283, ~{N}-[1-(cyclopropylmethyl)-2-[7-[(1~{S},6~{S})-3,7-diazabicyclo[4.2.0]octane-7-carbonyl]-5-methoxy-3-methylimidazo[1,2-a]pyridin-2-yl]pyrrolo[2,3-b]pyridin-6-yl]-~{N}-(difluoromethyl) methanesulfonamide] | 11700
11 | COc1cc(C(=O)N2[C@H]3CC[C@@H]2[C@H](N)C3)cc2nc(-c3cc4ccc([C@@H](C)NC(=O)[C@H]5[C@@H]6CC(F)(F)C[C@@H]65)nc4n3CC3CC3)c(C)n12 [Example 8, (1~{R},5~{S})-~{N}-[(1~{R})-1-[2-[7-[(1~{R}, 2~{R},4~{S})-2-amino-7-azabicyclo[2.2.1]heptane-7-carbonyl]-5-methoxy-3-methylimidazo [1,2-a]pyridin-2-yl]-1-(cyclopropylmethyl)pyrrolo[2,3-b]pyridin-6-yl]ethyl]-3,3-difluorobicyclo[3.1.0] hexane-6-carboxamide] | 144
12 | COc1cc(C(=O)N2[C@H]3CC[C@@H]2[C@H](N)C3)cc2nc(-c3cc4ccc(C5CCN(C(=O)C(C)(C)C)C5)nc4n3CC3CC3)c(C)n12 (stereo partly drawn) [Example 530, 1-[3-[2-[7-[(1~{R},2~{R}, 4~{S})-2-amino-7-azabicyclo[2.2.1]heptane-7-carbonyl]-5-methoxy-3-methylimidazo[1,2-a]pyridin-2-yl]-1-(cyclopropylmethyl)pyrrolo [2,3-b]pyridin-6-yl]pyrrolidin-1-yl]-2,2-dimethylpropan-1-one] | 274
13 | COc1cc(C(=O)N2[C@H]3CC[C@@H]2[C@H](N)C3)cc2nc(-c3cc4ccc(N5[C@@H]6CC[C@@H](C6)CS5(=O)=O)nc4n3CC3CC3)c(C)n12 [Example 473, [(1~{R},2~{R},4~{S})-2-amino-7-azabicyclo [2.2.1]heptan-7-yl]-[2-[1-(cyclopropylmethyl)-6-[(1~ {R},5~{S})-3,3-dioxo-3$l^6-thia-2-azabicyclo[3.2.1]octan-2-yl]pyrrolo [2,3-b]pyridin-2-yl]-5-methoxy-3-methylimidazo [1,2-a]pyridin-7-yl] methanone] | 117
14 | COc1cc(C(=O)N2C[C@H]3CC[C@@H]2[C@@H]3N)cc2nc(-c3cc4ccc(N(C)S(C)(=O)=O)nc4n3C)c(C)n12 [Example 493, N-[2-[7-[(1R,4R, 7R)-7-amino-2-azabicyclo [2.2.1]heptane-2-carbonyl]-5-methoxy-3-methyl-imidazo[1,2-a]pyridin-2-yl]-1-methyl-pyrrolo[2,3-b]pyridin-6-yl]-N-methyl-methanesulfonamide] | 2500
15 | COc1cc(C(=O)N2C[C@H]3CC[C@@H]2[C@H](N)C3)cc2nc(-c3cc4ccc(N(C(F)F)S(C)(=O)=O)nc4n3CC3CC3)c(C)n12 [Example 381, ~{N}-[2-[7-[(1~{R},4~{S}, 6~{R})-6-amino-2-azabicyclo[2.2.2]octane-2-carbonyl]-5-methoxy-3-methylimidazo[1,2-a]pyridin-2-yl]-1-(cyclopropylmethyl)pyrrolo [2,3-b]pyridin-6-yl]-~{N}-(difluoromethyl) methanesulfonamide] | 538
